Structures are written as SMILES.

The text below walks through data of patent EP0368158A1, “Imidazo pyridines” (Byk Gulden Lomberg Chemische Fabrik GmbH, priority 1988, dated 1990).

The subject of this assay is durch Pentagastrin stimulierte Säuresekretion des perfundierten Rattenmagens. Nature of the assay: Inhibition of pentagastrin-stimulated acid secretion in the perfused rat stomach in vivo. Set-up: species or system Ratte. The source says:
Prüfung der sekretionshemmenden Wirkung am perfundierten Rattenmagen
In der folgenden Tabelle 2 ist der Einfluß der erfindungsgemäßen Verbindungen nach intravenöser Gabe auf die durch Pentagastrin stimulierte Säuresekretion des perfundierten Rattenmagens in vivo dargestellt.
Narkotisierten Ratten (CD-Ratte, weiblich, 200-250 g; 1,5 g/kg i.m. Urethan) wurde nach Tracheotomie das Abdomen durch einen medianen Oberbauchschnitt er-öffnet und ein PVC-Katheter transoral im Ösophagus sowie ein weiterer via Pylorus derart fixiert, daß die Schlauchenden eben noch in das Magenlumen hineinragten. Der aus dem Pylorus führende Katheter führte über eine seitliche Öffnung in der rechten Bauchwand nach außen.
Nach gründlicher Spülung (ca.50-100 ml) wurde der Magen mit 37 °C warmer physiologischer NaCl-Lösung kontinuierlich durchströmt (0,5 ml/min, pH 6,8-6,9; Braun-Unita I). In dem jeweils im 15 min-Abstand aufgefangenen (25 ml Meßzylinder) Effluat wurde der pH-Wert (pH-Meter 632, Glaselektrode EA 147; ⌀ = 5 mm, Metrohm) sowie durch Titration mit einer frisch zubereiteten 0,01 N NaOH bis pH 7 (Dosimat 655 Metrohm) die sezernierte HCl bestimmt.
Die Stimulation der Magensekretion erfolgte durch Dauerinfusion von 1µg/kg (=1,65 ml/h) i.v. Pentagastrin (V. fem. sin.) ca 30 min nach Operationsende (d.h. nach Bestimmung von 2 Vorfraktionen). […]

For the compound `COCC(=O)O[C@@H]1Cc2cc(F)ccc2[C@H]1Oc1cccn2c(CO)c(C)nc12` (relative stereo) [Beispiel 5, 8-(5-Fluor-trans-2-methoxyacetoxy-2,3-dihydro-1-indenyloxy)-3-hydroxymethyl-2-methyl-imidazo[1,2-a]pyridin], the “Maximale Hemmung der Säureausscheidung ca. ED50 +) (µmol/kg) i.v.” value (i.v., interpolated dose that causes a maximal inhibition of HCl secretion by 50 %, head says 'ca.') is recorded as ~0,8 µmol/kg.

As to `COc1ccc(C(=O)O[C@@H]2Cc3ccccc3[C@H]2Oc2cccn3c(CO)c(C)nc23)cc1` (relative stereo) [Beispiel 2, 3-Hydroxymethyl-8-[trans-2-(4-methoxybenzoyloxy)-2,3-dihydro-1-indenyloxy]-2-methyl-imidazo[1,2-a]pyridin], the ED50 (Rattus norvegicus, iv; i.v.; interpolated dose that causes a maximal inhibition of HCl secretion by 50 %; head says 'ca.'; read-out: Maximale Hemmung der Säureausscheidung ca. ED50 +) (µmol/kg) i.v.) was ~1.1 µmol/kg.
